Measured values: the NIST ThermoML archive (doi:10.1021/acs.jced.8b00358)

Legend:
[1] = 83 kPa, Liquid; for speed of sound: Frequency=3 MHz, Single path-length method; for mass density: Vibrating tube method
[2] = molar heat capacity at constant pressure; details: 83 kPa, Liquid, DSC

CCCCC(=O)OCC(COC(=O)CCCC)(COC(=O)CCCC)COC(=O)CCCC [pentaerythritol tetrapentanoate]
Details | mass density [kg/m3] | molar heat capacity at constant pressure [J/K/mol] | speed of sound [m/s]
[1], 278.15 K | 1030.29 | – | 1417.7
[1], 283.15 K | 1026.21 | – | 1400.3
[1], 288.15 K | 1022.14 | – | 1383.2
[1], 293.15 K | 1018.08 | – | 1366.2
[1], 298.15 K | 1014.04 | – | 1349.3
[1], 303.15 K | 1010 | – | 1332.7
[1], 308.15 K | 1005.97 | – | 1316.2
[1], 313.15 K | 1001.94 | – | 1299.8
[1], 318.15 K | 997.92 | – | 1283.6
[1], 323.15 K | 993.9 | – | 1267.6
[1], 328.15 K | 989.89 | – | 1251.8
[1], 333.15 K | 985.88 | – | 1236.1
[1], 338.15 K | 981.88 | – | 1220.5
[1], 343.15 K | 977.88 | – | 1205.2
[2], 263.14 K | – | 805.33 | –
[2], 264.15 K | – | 806.28 | –
[2], 265.15 K | – | 807.22 | –
[2], 266.14 K | – | 808.17 | –
[2], 267.14 K | – | 809.11 | –
[2], 268.15 K | – | 809.58 | –
[2], 269.14 K | – | 810.53 | –
[2], 270.14 K | – | 811.47 | –
[2], 271.15 K | – | 812.42 | –
[2], 272.14 K | – | 813.37 | –
[2], 273.14 K | – | 814.78 | –
[2], 274.14 K | – | 815.73 | –
[2], 275.15 K | – | 816.67 | –
[2], 276.14 K | – | 817.62 | –
[2], 277.14 K | – | 819.04 | –
[2], 278.15 K | – | 819.98 | –
[2], 279.15 K | – | 820.93 | –
[2], 280.15 K | – | 821.87 | –
[2], 281.14 K | – | 822.82 | –
[2], 282.15 K | – | 823.76 | –
[2], 283.15 K | – | 824.71 | –
[2], 284.15 K | – | 825.65 | –
[2], 285.15 K | – | 827.07 | –
[2], 286.14 K | – | 828.02 | –
[2], 287.14 K | – | 828.96 | –
[2], 288.15 K | – | 829.91 | –
[2], 289.15 K | – | 831.32 | –
[2], 290.14 K | – | 832.27 | –
[2], 291.14 K | – | 833.69 | –
[2], 292.14 K | – | 835.11 | –
[2], 293.14 K | – | 836.05 | –
[2], 294.15 K | – | 837.47 | –
[2], 295.14 K | – | 838.89 | –
[2], 296.15 K | – | 839.83 | –
[2], 297.14 K | – | 841.25 | –
[2], 298.14 K | – | 842.67 | –
[2], 299.15 K | – | 843.61 | –
[2], 300.14 K | – | 845.03 | –
[2], 301.15 K | – | 846.45 | –
[2], 302.14 K | – | 847.39 | –
[2], 303.15 K | – | 848.81 | –
[2], 304.15 K | – | 850.23 | –
[2], 305.14 K | – | 851.17 | –
[2], 306.15 K | – | 852.12 | –
[2], 307.15 K | – | 853.54 | –
[2], 308.14 K | – | 854.48 | –
[2], 309.14 K | – | 855.9 | –
[2], 310.15 K | – | 857.32 | –
[2], 311.15 K | – | 858.26 | –
[2], 312.14 K | – | 859.68 | –
[2], 313.15 K | – | 860.63 | –
[2], 314.14 K | – | 862.04 | –
[2], 315.15 K | – | 863.46 | –
[2], 316.14 K | – | 864.41 | –
[2], 317.15 K | – | 865.83 | –
[2], 318.15 K | – | 866.77 | –
[2], 319.14 K | – | 868.19 | –
[2], 320.15 K | – | 869.61 | –
[2], 321.15 K | – | 870.55 | –
[2], 322.14 K | – | 871.97 | –
[2], 323.14 K | – | 873.39 | –
[2], 324.15 K | – | 874.33 | –
[2], 325.14 K | – | 875.75 | –
[2], 326.15 K | – | 876.7 | –
[2], 327.15 K | – | 878.11 | –
[2], 328.15 K | – | 879.53 | –
[2], 329.14 K | – | 880.48 | –
[2], 330.15 K | – | 881.89 | –
[2], 331.15 K | – | 883.31 | –
[2], 332.14 K | – | 884.26 | –
[2], 333.14 K | – | 885.68 | –
[2], 334.15 K | – | 887.09 | –
[2], 335.14 K | – | 888.51 | –
[2], 336.14 K | – | 889.93 | –
[2], 337.14 K | – | 891.35 | –
[2], 338.14 K | – | 892.29 | –
[2], 339.15 K | – | 893.71 | –
[2], 340.14 K | – | 895.13 | –
[2], 341.14 K | – | 896.07 | –
[2], 342.15 K | – | 897.02 | –
[2], 343.14 K | – | 898.44 | –
[2], 344.15 K | – | 899.38 | –
[2], 345.15 K | – | 900.8 | –
[2], 346.15 K | – | 902.22 | –
[2], 347.14 K | – | 903.16 | –
[2], 348.14 K | – | 904.58 | –
[2], 349.15 K | – | 906 | –
[2], 350.14 K | – | 907.42 | –
[2], 351.14 K | – | 908.36 | –
[2], 352.14 K | – | 909.78 | –
[2], 353.14 K | – | 911.2 | –
[2], 354.15 K | – | 912.61 | –
[2], 355.14 K | – | 913.56 | –
[2], 356.15 K | – | 914.98 | –
[2], 357.15 K | – | 916.39 | –
[2], 358.14 K | – | 917.81 | –
[2], 359.15 K | – | 918.76 | –
[2], 360.15 K | – | 920.18 | –
[2], 361.14 K | – | 921.59 | –
[2], 362.15 K | – | 922.54 | –
[2], 363.15 K | – | 923.96 | –
[2], 364.14 K | – | 925.37 | –
[2], 365.14 K | – | 926.79 | –
[2], 366.15 K | – | 927.74 | –
[2], 367.14 K | – | 929.16 | –
[2], 368.14 K | – | 930.57 | –
[2], 369.14 K | – | 931.99 | –
[2], 370.14 K | – | 933.41 | –
[2], 371.15 K | – | 934.35 | –
[2], 372.14 K | – | 935.77 | –
[2], 373.14 K | – | 937.19 | –
[2], 374.15 K | – | 938.61 | –
[2], 375.14 K | – | 939.55 | –
[2], 376.14 K | – | 940.97 | –
[2], 377.14 K | – | 942.39 | –
[2], 378.15 K | – | 943.81 | –
[2], 379.15 K | – | 944.75 | –
[2], 380.14 K | – | 946.17 | –
[2], 381.15 K | – | 947.59 | –
[2], 382.14 K | – | 949.01 | –
[2], 383.14 K | – | 950.42 | –
[2], 384.14 K | – | 951.84 | –
[2], 385.15 K | – | 952.79 | –
[2], 386.14 K | – | 954.2 | –
[2], 387.14 K | – | 955.62 | –
[2], 388.15 K | – | 957.04 | –
[2], 389.15 K | – | 957.98 | –
[2], 390.14 K | – | 959.4 | –
[2], 391.15 K | – | 960.82 | –
[2], 392.15 K | – | 961.77 | –
[2], 393.15 K | – | 963.18 | –
[2], 394.15 K | – | 964.13 | –
[2], 395.15 K | – | 965.55 | –
[2], 396.14 K | – | 966.96 | –
[2], 397.14 K | – | 968.38 | –
[2], 398.14 K | – | 969.8 | –
[2], 399.14 K | – | 971.22 | –
[2], 400.15 K | – | 972.16 | –
[2], 401.14 K | – | 973.58 | –
[2], 402.14 K | – | 975 | –
[2], 403.15 K | – | 975.94 | –
[2], 404.15 K | – | 977.36 | –
[2], 405.14 K | – | 978.78 | –
[2], 406.15 K | – | 979.72 | –
[2], 407.14 K | – | 981.14 | –
[2], 408.14 K | – | 982.56 | –
[2], 409.14 K | – | 983.51 | –
[2], 410.15 K | – | 984.92 | –
[2], 411.15 K | – | 986.34 | –
[2], 412.14 K | – | 987.76 | –
[2], 413.15 K | – | 988.7 | –
[2], 414.15 K | – | 990.12 | –
[2], 415.15 K | – | 991.54 | –
[2], 416.14 K | – | 992.96 | –
[2], 417.15 K | – | 993.9 | –
[2], 418.15 K | – | 995.32 | –
[2], 419.15 K | – | 996.27 | –
[2], 420.14 K | – | 997.68 | –
[2], 421.15 K | – | 999.1 | –
[2], 422.15 K | – | 1000 | –
[2], 423.15 K | – | 1001.5 | –
[2], 424.14 K | – | 1002.9 | –
[2], 425.15 K | – | 1004.3 | –
[2], 426.15 K | – | 1005.2 | –
[2], 427.14 K | – | 1006.7 | –
[2], 428.15 K | – | 1008.1 | –
[2], 429.15 K | – | 1009 | –
[2], 430.14 K | – | 1010.4 | –
[2], 431.15 K | – | 1011.4 | –
[2], 432.15 K | – | 1012.8 | –
